Broadly, the IC50 is the concentration that inhibits the measured activity by half.

Structures can show the parent of a compound that is named as a salt.

The test system of one experiment is CD4+ CCR4+ T cells. Kind of experiment: Chemokine stimulated increases in cellular F-actin content. Format: cell-based. Particulars: Homo sapiens, T-cell, 0.5 h; PBMC from normal volunteers; antagonist 30 min at 37° C. before agonist for 15 sec; F-actin content by flow cytometry; read-out: pA2 (converted). The method, boiled down: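 Human PBMC from citrated volunteer blood, stained for CD4 and CCR4, were pre-incubated with antagonist or vehicle (0.1% DMSO) for 30 min at 37 °C, then stimulated with agonist for 15 s and formaldehyde-fixed. F-actin was stained with phalloidin and read by flow cytometry as CD4+CCR4+ MFI relative to CD4+CCR4− cells.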
A general note: In flow cytometry, cells or beads pass a laser one at a time.

The target of another experiment is T1, CCR4 (Homo sapiens, UniProt P51679).
T1 construct: expressed in transfected cells; host or cells: CHO cell membranes
T1 sequence (P51679 1-360): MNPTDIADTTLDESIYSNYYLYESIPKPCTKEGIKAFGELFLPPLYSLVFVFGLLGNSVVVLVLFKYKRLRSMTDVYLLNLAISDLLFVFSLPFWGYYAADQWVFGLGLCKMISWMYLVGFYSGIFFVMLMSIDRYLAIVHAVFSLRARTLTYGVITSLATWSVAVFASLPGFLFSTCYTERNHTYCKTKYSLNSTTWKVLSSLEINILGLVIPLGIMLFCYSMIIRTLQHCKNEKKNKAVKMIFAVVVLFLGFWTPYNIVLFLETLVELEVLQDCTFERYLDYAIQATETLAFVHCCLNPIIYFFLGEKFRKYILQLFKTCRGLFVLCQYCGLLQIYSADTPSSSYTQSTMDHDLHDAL
Description: [35S]-GTPγS SPA binding assay for CCR4 antagonist activity. Format: biochemical. Particulars: CCR4 expressing CHO membranes; human MDC at EC80; [35S]-GTPγS competition. On the procedure: [35S]-GTPγS SPA Binding Assays for CCR4 Antagonist Activity
Antagonist potency was determined by a radioligand [35S]-GTPγS competition assay. Briefly, CCR4 expressing CHO membranes were homogenised by passing through a 23G needle. These membranes were then adhered to WGA-coated Leadseeker SPA beads in assay buffer (20 mM HEPES, 10 mM MgCl2, 100 mM NaCl, 0.05% BSA, 40 ug/ml Saponin and pH adjusted to 7.4 using KOH 5M) to generate a 3 μg/well final assay concentration (FAC) membrane and 250 μg/well FAC bead, solution.
The bead/membrane/[35S]-GTPγS/Agonist suspension was dispensed into white Greiner polypropylene 384-well plates (45 μl/well), containing 0.5 μl of compound. […] Plates were then read on a Viewlux instrument and luminescence was then plotted as a percentage of the maximum inhibitional response elicited by an IC100 of a standard antagonist.
Background: GTPγS is a poorly hydrolysed GTP analogue; its binding reports G protein activation.

In the case of `COc1cccc2c1c(NS(=O)(=O)c1ccc(Cl)s1)nn2Cc1cccc(CNC(=O)C2COCCN2C)c1` (single isomer, unassigned; enantiomer 1) [Example 124, N-[(3-{[3-{[(5-Chloro-2-thienyl)sulfonyl]amino}-4-(methyloxy)-1H-indazol-1-yl]methyl}phenyl)methyl]-4-methyl-3-morpholinecarboxamide Enantiomer 1], in the experiment on CD4+ CCR4+ T cells, the Kb was at most 126 nM. For the same compound, at CCR4, the IC50 is 3.98 to 15.8 nM.
In the same order, the values of `CCC(=O)NCc1cccc(Cn2nc(NS(=O)(=O)c3ccc(Cl)s3)c3c(OC)cccc32)c1` [Example 2, N-[(3-{[3-{[(5-chloro-2-thienyl)sulfonyl]amino}-4-(methyloxy)-1H-indazol-1-yl]methyl}phenyl)methyl]propanamide] are at most 126 nM and 3.98 to 15.8 nM.
In the same order, the values of `COc1cccc2c1c(NS(=O)(=O)c1ccc(Cl)s1)nn2Cc1cccc(CNC(=O)C(C)C)c1` [Example 3, N-[(3-{[3-{[(5-chloro-2-thienyl)sulfonyl]amino}-4-(methyloxy)-1H-indazol-1-yl]methyl}phenyl)methyl]-2-methylpropanamide] are at most 126 nM and 3.98 to 15.8 nM.
Consider `COc1cccc2c1c(NS(=O)(=O)c1ccc(Cl)s1)nn2Cc1cccc(CNC(=O)C(C)(C)C)c1` [Example 4, N-[(3-{[3-{[(5-chloro-2-thienyl)sulfonyl]amino}-4-(methyloxy)-1H-indazol-1-yl]methyl}phenyl)methyl]-2,2-dimethylpropanamide], for which, in the experiment with CD4+ CCR4+ T cells, the Kb was at most 126 nM. This compound also showed a half-inhibitory concentration (IC50) at CCR4 of 3.98 to 15.8 nM.
In the same order, the values of `COc1cccc2c1c(NS(=O)(=O)c1ccc(Cl)s1)nn2Cc1cccc(CNC(=O)C2COCCN2)c1` (stereo not drawn) [Example 6, N-[(3-{[3-{[(5-chloro-2-thienyl)sulfonyl]amino}-4-(methyloxy)-1H-indazol-1-yl]methyl}phenyl)methyl]-3-morpholinecarboxamide trifluoroacetate] are at most 126 nM and 3.98 to 15.8 nM.
On to `COc1cccc2c1c(NS(=O)(=O)c1ccc(Cl)s1)nn2Cc1cccc(CNC(=O)[C@H]2COCCN2)c1` [Example 7, (3R)—N-[(3-{[3-{[(5-Chloro-2-thienyl)sulfonyl]amino}-4-(methyloxy)-1H-indazol-1-yl]methyl}phenyl)methyl]-3-morpholinecarboxamide hydrochloride], for which, in the experiment on CD4+ CCR4+ T cells, the Kb is at most 126 nM. Further, the 50% inhibitory concentration (IC50) on CCR4 is 3.98 to 15.8 nM.
For `COc1cccc2c1c(NS(=O)(=O)c1ccc(Cl)s1)nn2Cc1cccc(CNC(=O)[C@@H]2COCCN2)c1` [Example 8, (3S)—N-[(3-{[3-{[(5-Chloro-2-thienyl)sulfonyl]amino}-4-(methyloxy)-1H-indazol-1-yl]methyl}phenyl)methyl]-3-morpholinecarboxamide hydrochloride] the same measures were at most 126 nM and 3.98 to 15.8 nM.
For `CN[C@H](C)C(=O)NCc1cccc(Cn2nc(NS(=O)(=O)c3ccc(Cl)s3)c3c(OC)cccc32)c1` [Example 10, N^1-[(3-{[3-{[(5-chloro-2-thienyl)sulfonyl]amino}-4-(methyloxy)-1H-indazol-1-yl]methyl}phenyl)methyl]-N^2-methyl-D-alaninamide hydrochloride] the same measures were at most 126 nM and 3.98 to 15.8 nM.
As for `COc1cc(F)cc2c1c(NS(=O)(=O)c1ccc(Cl)s1)nn2Cc1cccc(CNC(=O)C2COCCN2C)c1` (stereo not drawn) [Example 133, N-[(3-{[3-{[(5-Chloro-2-thienyl)sulfonyl]amino}-6-fluoro-4-(methyloxy)-1H-indazol-1-yl]methyl}phenyl)methyl]-4-methyl-3-morpholinecarboxamide], the IC50 on CCR4 is 3.98 to 15.8 nM.
Same read-out and setting: then `COc1c(F)ccc2c1c(NS(=O)(=O)c1ccc(Cl)s1)nn2Cc1cccc(CNC(C)=O)c1` [Example 134, N-[(3-{[3-{[(5-Chloro-2-thienyl)sulfonyl]amino}-5-fluoro-4-(methyloxy)-1H-indazol-1-yl]methyl}phenyl)methyl]acetamide], with 3.98 to 15.8 nM; and `COc1cccc2c1c(NS(=O)(=O)c1ccc(Cl)s1)nn2Cc1cccc(CNC(=O)CCC(=O)O)c1` [Example 138, 4-{[(3-{[3-{[(5-Chloro-2-thienyl)sulfonyl]amino}-4-(methyloxy)-1H-indazol-1-yl]methyl}phenyl)methyl]amino}-4-oxobutanoic acid], with 3.98 to 15.8 nM; and `COc1cccc2c1c(NS(=O)(=O)c1ccc(Cl)s1)nn2Cc1cccc(CNC(=O)CCCC(=O)O)c1` [Example 139, 5-{[(3-{[3-{[(5-Chloro-2-thienyl)sulfonyl]amino}-4-(methyloxy)-1H-indazol-1-yl]methyl}phenyl)methyl]amino}-5-oxopentanoic acid], with 3.98 to 15.8 nM.
Still for that read-out and setting: then `COc1cccc2c1c(NS(=O)(=O)c1ccc(Cl)s1)nn2Cc1cccc(CNC(=O)CCCCC(=O)O)c1` [Example 140, 6-{[(3-{[3-{[(5-Chloro-2-thienyl)sulfonyl]amino}-4-(methyloxy)-1H-indazol-1-yl]methyl}phenyl)methyl]amino}-6-oxohexanoic acid], with 3.98 to 15.8 nM; and `COc1cccc2c1c(NS(=O)(=O)c1ccc(Cl)s1)nn2Cc1cccc(CNC(=O)c2ccc(C(=O)O)cc2)c1` [Example 142, 4-({[(3-{[3-{[(5-Chloro-2-thienyl)sulfonyl]amino}-4-(methyloxy)-1H-indazol-1-yl]methyl}phenyl)methyl]amino}carbonyl)benzoic acid], with 3.98 to 15.8 nM.
Still for that read-out and setting: the figure for `COc1cccc2c1c(NS(=O)(=O)c1ccc(Cl)s1)nn2Cc1cccc(CNC(=O)[C@H]2CC[C@H](C(=O)O)CC2)c1` [Example 143, trans-4-({[(3-{[3-{[(5-Chloro-2-thienyl)sulfonyl]amino}-4-(methyloxy)-1H-indazol-1-yl]methyl}phenyl)methyl]amino}carbonyl)cyclohexanecarboxylic acid] is 3.98 to 15.8 nM; for `COc1cccc2c1c(NS(=O)(=O)c1ccc(Cl)s1)nn2Cc1cccc(CNC(=O)CCCCCCC(=O)O)c1` [Example 144, 8-{[(3-{[3-{[(5-Chloro-2-thienyl)sulfonyl]amino}-4-(methyloxy)-1H-indazol-1-yl]methyl}phenyl)methyl]amino}-8-oxooctanoic acid] it is 3.98 to 15.8 nM.
Take `CC(=O)NCc1cccc(Cn2nc(NS(=O)(=O)c3ccc(Cl)s3)c3c(CO)cccc32)c1` [Example 148, N-[(3-{[3-{[(5-Chloro-2-thienyl)sulfonyl]amino}-4-(hydroxymethyl)-1H-indazol-1-yl]methyl}phenyl)methyl]acetamide]: the 50% inhibitory concentration (IC50) on CCR4 is 3.98 to 15.8 nM.
On the same count and under the same terms, then `CC(=O)NCc1cccc(Cn2nc(NS(=O)(=O)c3ccc(Cl)s3)c3c(C(C)O)cccc32)c1` (stereo not drawn) [Example 149, N-[(3-{[3-{[(5-Chloro-2-thienyl)sulfonyl]amino}-4-(1-hydroxyethyl)-1H-indazol-1-yl]methyl}phenyl)methyl]acetamide], with 3.98 to 15.8 nM; and `CC(O)c1cccc2c1c(NS(=O)(=O)c1ccc(Cl)s1)nn2Cc1cccc(CNC(=O)C(C)(C)O)c1` (stereo not drawn) [Example 151, N-[(3-{[3-{[(5-Chloro-2-thienyl)sulfonyl]amino}-4-(1-hydroxyethyl)-1H-indazol-1-yl]methyl}phenyl)methyl]-2-hydroxy-2-methylpropanamide], with 3.98 to 15.8 nM.
Same read-out and setting: then `CC(O)c1cccc2c1c(NS(=O)(=O)c1ccc(Cl)s1)nn2Cc1cccc(CNC(=O)[C@H]2COCCN2)c1` (stereo partly drawn) [Example 152, (3R)—N-[(3-{[3-{[(5-Chloro-2-thienyl)sulfonyl]amino}-4-(1-hydroxyethyl)-1H-indazol-1-yl]methyl}phenyl)methyl]-3-morpholinecarboxamide formate salt], with 3.98 to 15.8 nM.
On the same count and under the same terms, then `CC(O)c1cccc2c1c(NS(=O)(=O)c1ccc(Cl)s1)nn2Cc1cccc(CNC(=O)[C@@H]2COCCN2)c1` (stereo partly drawn) [Example 153, (3S)—N-[(3-{[3-{[(5-Chloro-2-thienyl)sulfonyl]amino}-4-(1-hydroxyethyl)-1H-indazol-1-yl]methyl}phenyl)methyl]-3-morpholinecarboxamide formate salt], with 3.98 to 15.8 nM; and `CC(C)(O)c1cccc2c1c(NS(=O)(=O)c1ccc(Cl)s1)nn2Cc1cccc(CNC(=O)[C@@H]2COCCN2)c1` [Example 156, (3S)—N-[(3-{[3-{[(5-Chloro-2-thienyl)sulfonyl]amino}-4-(1-hydroxy-1-methylethyl)-1H-indazol-1-yl]methyl}phenyl)methyl]-3-morpholinecarboxamide], with 100 to 398 nM.

For the origin of these results see patent publication US8304446B2, “Compounds” (Glaxo Group Limited, priority 2009, dated 2012).
